According to patent US8367873B2, “Phenyl-substituted bicyclooctane-1,3-dione derivatives” (Bayer Cropscience AG, priority 2008, dated 2013):

Columns and labels:
Type in all cases: in vivo
[1] = tested on: Alopecurus myosuroides; assay: Herbicidal post-emergence action; details: post-emergence method, 80 g/ha
Summary of the method: (§1)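 One-leaf-stage greenhouse plants sprayed with WP at graded amounts (600 l/ha, 0.2% wetting agent); ~3 wk later, visual % effect rated vs untreated controls, 100% = dead, 0% = like control.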

[2] = tested on: Lolium multiflorum; assay: Herbicidal post-emergence action; details: post-emergence method, 80 g/ha
Summary of the method: as §1

[3] = tested on: Echinocloa crus-galli; assay: Herbicidal post-emergence action; details: post-emergence method, 80 g/ha
Summary of the method: as §1

[4] = tested on: Setaria viridis; assay: Herbicidal post-emergence action; details: post-emergence method, 80 g/ha
Summary of the method: as §1

[5] = tested on: monocotylidonous and dicotylidonous weed and crop plants; assay: Herbicidal pre-emergence action (other test plants); details: pre-emergence method, 80 g/ha, greenhouse, visual assessment vs untreated controls
Summary of the method: (§2)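 Seeds sown in sandy loam and covered with soil; WP-formulated compounds applied as aqueous suspension (600 l/ha water, 0.2% wetting agent) to the soil surface at various rates. Greenhouse-grown; emergence damage scored visually after three weeks versus untreated controls (0% = like control, 100% = plants dead).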

[6] = tested on: Alopecurus myosuroides; assay: Herbicidal pre-emergence action; details: pre-emergence method, 80 g/ha, greenhouse, visual assessment vs untreated controls
Summary of the method: as §2

[7] = tested on: Lolium multiflorum; assay: Herbicidal pre-emergence action; details: pre-emergence method, 80 g/ha, greenhouse, visual assessment vs untreated controls
Summary of the method: as §2

[8] = tested on: Echinocloa crus-galli; assay: Herbicidal pre-emergence action; details: pre-emergence method, 80 g/ha, greenhouse, visual assessment vs untreated controls
Summary of the method: as §2

[9] = tested on: Setaria viridis; assay: Herbicidal pre-emergence action; details: pre-emergence method, 80 g/ha, greenhouse, visual assessment vs untreated controls
Summary of the method: as §2

[10] = tested on: monocotylidonous and dicotylidonous weed and crop plants; assay: Herbicidal post-emergence action (other test plants); details: post-emergence method, 80 g/ha
Summary of the method: as §1

Row | SMILES | herbicidal effect against ALOMY (Alopecurus myosuroides) [1] | herbicidal effect against LOLMU (Lolium multiflorum) [2] | herbicidal effect against ECHCG (Echinochloa crus-galli) [3] | herbicidal effect against SETVI (Setaria viridis) [4] | herbicidal effect AVEFA [5] | herbicidal effect ALOMY [6] | herbicidal effect LOLMU [7] | herbicidal effect ECHCG [8] | herbicidal effect SETVI [9] | herbicidal effect against AVEFA (Avena fatua) [10]
1 | CCc1cc(C)cc(CC)c1C1=C(OC(=O)C(C)C)C2CC3(COC(C)(C)O3)CC2C1=O (centres unmarked) [I-b-3] | 100% | 100% | 100% | 20% | 60% | 90% | 100% | 0% | 50% | 40%
2 | CCc1cc(C)cc(CC)c1C1=C([O-])C2CC3(CC2C1=O)OCCO3.[Na+] (centres unmarked) [I-f-15] | 80% | 100% | 100% | 100% | 60% | 100% | 100% | 100% | 90% | 90%
3 | CCOC(=O)OC1=C(c2c(CC)cc(C)cc2CC)C(=O)C2CC3(CC12)OC(C)(C)C(C)(C)O3 (centres unmarked) [I-c-18] | 60% | 90% | 80% | 0% | 0% | 90% | 100% | 100% | 10% | 0%
4 | C=C1CC2C(=O)C(c3c(C)cc(C)cc3OC)=C(O)C2C1 (centres unmarked) [I-a-45] | 0% | 0% | 80% | 80% | 60% | 80% | 80% | 100% | 100% | 0%
5 | CCc1cc(C)cc(C)c1C1=C(OC(C)=O)C2CC3(COC(C)(C)O3)CC2C1=O (centres unmarked) [I-b-66] | 100% | 100% | 100% | 80% | 80% | 80% | 100% | 100% | 80% | 90%
6 | CCc1cc(C)cc(CC)c1C1=C([O-])C2CC3(CC2C1=O)OC(C)CC(C)O3.[Na+] (centres unmarked) [I-f-2] | 80% | 100% | 100% | 90% | 50% | 90% | 100% | 90% | 60% | 90%
7 | Cc1cc(C)c(C2=C(OC(=O)C(C)C)C3CC4(COC(C)(C)O4)CC3C2=O)c(C)c1 (mixture of isomers) [I-b-46] | 90% | 100% | 90% | 80% | 60% | 90% | 100% | 0% | 0% | 40%
8 | CCc1cc(C)cc(CC)c1C1=C(OC(=O)OC)C2CC3(CC2C1=O)OCCCS3 (mixture of isomers) [I-c-32] | 80% | 90% | 90% | 80% | 70% | 80% | 100% | 100% | 70% | 90%
